Data set [1] concerns HBV in 2.2.15 cells. Nature of the data set: 2.2.15 cells: viral product in cell lysates quantified via quantitative real time PCR. In kind it is cell-based, hepatitis B virus (HBV). As to conditions: Hepatitis B virus, 120 h, day 5 post treatment, 50% reduction of viral product vs no drug controls, readout (qPCR, HBsAg or HBeAg) not specified for the column. The essentials:
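HBV product was measured at day 5 by lysate qPCR or by supernatant HBsAg/HBeAg ELISA, in 2.2.15 cells seeded at 35,000/well and exposed to 5-fold compound dilution series (0.5% DMSO). EC50 is 50% reduction of viral product relative to untreated controls.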
(Real-time PCR tracks product formation cycle by cycle.)

Data set [2] can be described thus: Compound induced cellular toxicity in HepG2 cells, ATPlite 1Step. In kind it is cell-based. As to conditions: human, three days exposure, 50% reduction of total ATP vs no drug controls. On the procedure:
At day 3, post seeding cells are treated with ATPlite 1Step according to the manufacturer's instructions.
(In ATP-based viability assays light output follows the ATP content of the culture.)

Where only a bound is given, the exact number is not on record here.

The compound `CC(C)(C)[C@@H]1Cn2nc(C3CC3)c(-c3ccc(F)cc3)c2-c2cc(=O)c(-c3ncn[nH]3)cn21` [Example 196, (R)-6-(tert-butyl)-2-cyclopropyl-1-(4-fluorophenyl)-9-(1H-1,2,4-triazol-5-yl)-5,6-dihydro-10H-pyrazolo[1,5-a]pyrido[2,1-c]pyrazin-10-one] returned an EC50 in data set [1] of less than 0.1 µM. In data set [2], this compound displayed a CC50 at 3 days of more than 25 µM.

On to `CC(C)(C)[C@@H]1Cn2nc(C3CC3)c(-c3ccccc3)c2-c2cc(=O)c(C(=O)O)cn21` [Example 149, (R)-6-(tert-butyl)-2-cyclopropyl-10-oxo-1-phenyl-5,6-dihydro-10H-pyrazolo[1,5-a]pyrido[2,1-c]pyrazine-9-carboxylic acid], for which the EC50 in data set [1] is less than 0.1 µM. For the same compound, the CC50 at 3 days in data set [2] is more than 25 µM.

By EC50 is commonly meant the concentration needed to bring the measured effect to its halfway point. A higher EC50 goes with a need for much substance. The term CC50 denotes the concentration that lowers cell viability or growth by half. High values mean better tolerance by the cells, low ones harm at low concentration.

(Values after US12264159B2, “Functionalized heterocycles as antiviral agents” (Enanta Pharmaceuticals, Inc., priority 2018, dated 2025).)
